Experimental data published in patent US11649502B2, “Exosomal microRNA in serum as an indicator for the activation of brown and beige fat tissue (BAT)” (RHEINISCHE FRIEDRICH-WILHELMS-UNIVERSITÄT BONN, priority 2015, dated 2023).

Legend:
[1] = system: UCP-1; assay: UCP-1 expression after NE treatment in primary murine white adipocytes; format: cell-based, mouse; settings: primary murine white adipocytes treated with NE
[2] = system: UCP-1; assay: UCP-1 expression after NE treatment in 3T3-L1 cells; format: cell-based; settings: 3T3-L1 cells after NE treatment
Text: The supernatant was withdrawn and used for exosome isolation.

[3] = system: C57BL/6J wild type mice; assay: qPCR of exosomal miRNAs in mouse serum after BAT activation; format: in vivo
Method: Cold exposure was performed by housing 12 week old male mice at 4° C. for 7 days. The β3-adrenergic agonist CL-316,243 (#1499, Tocris, Wiesbaden, GER, 0.2 mg/mL in 0.9 W/V % NaCl) was administered by subcutaneous injection (1 μg per g body weight) for 7 days. Control-treated C57BL/6J mice received vehicle injections (0.9% NaCl) correspondingly. Blood collections were performed after 4 hours of fasting.

[4] = serum of mice with active BAT (CL-316,243 or cold)

SMILES: NC[C@H](O)c1ccc(O)c(O)c1 [NE, norepinephrine]
- UCP-1 expression [1]: significant increase
- UCP-1 expression [2]: did not significantly increase

SMILES: C[C@H](Cc1ccc2c(c1)OC(C(=O)[O-])(C(=O)[O-])O2)NC[C@H](O)c1cccc(Cl)c1.[Na+].[Na+] [CL]
- miR-133a in serum-derived exosomes ([3]; CL-treated mice, 1 μg per g body weight s.c. for 7 days): down-regulated
- miR-34c* in serum exosomes (qPCR) [3, 4]: significantly up-
- miR-92a in serum exosomes (qPCR) [3, 4]: down-regulated
